According to US20050026911A1, “Benzotriazapinone salts and methods for using same” (priority 2003, published 2005):

Molecular target: T1, gastrin (CCK2) receptors (Rattus norvegicus, UniProt P30553)
T1 construct: The stomach was excised and flushed with ca. 1 ml of unbuffered physiological saline solution; from tissue; host or cells: isolated whole stomach of immature rats (ca. 21 days old)
T1 sequence (P30553 1-452): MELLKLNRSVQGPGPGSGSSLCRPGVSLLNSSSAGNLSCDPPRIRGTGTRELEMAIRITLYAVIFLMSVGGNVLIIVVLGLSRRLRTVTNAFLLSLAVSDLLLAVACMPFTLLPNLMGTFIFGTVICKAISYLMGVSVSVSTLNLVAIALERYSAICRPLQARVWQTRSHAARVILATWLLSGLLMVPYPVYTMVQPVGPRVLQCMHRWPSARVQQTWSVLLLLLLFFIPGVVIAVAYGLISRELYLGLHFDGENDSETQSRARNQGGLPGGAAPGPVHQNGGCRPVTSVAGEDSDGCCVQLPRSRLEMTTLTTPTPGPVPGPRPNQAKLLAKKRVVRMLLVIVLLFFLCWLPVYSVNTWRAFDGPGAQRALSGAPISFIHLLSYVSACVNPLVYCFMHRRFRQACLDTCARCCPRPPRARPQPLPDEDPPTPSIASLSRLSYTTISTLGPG
Test: gastrin (CCK2) antagonist activity in an immature rat stomach assay
Details: pentagastrin dose-response curves, acid secretion, read-out: pKB rat stomach (converted)
Experimental: The compounds of the examples were tested for gastrin (CCK2) antagonist activity in an immature rat stomach assay. The procedure was as follows:
The oesophagus of immature rats (33-50 g, ca. 21 days old) was ligated at the level of the cardiac sphincter and the duodenal sphincter was cannulated. The stomach was excised and flushed with ca. 1 ml of unbuffered physiological saline solution. The fundus was punctured and cannulated. A further 4-5 ml of unbuffered solution was flushed through the stomach to ensure the preparation was not leaking. […] The stomach was continuously perfused at a rate of 1 ml min^−1 with unbuffered solution gassed with 100% O2 with the perfusate passing over an internally referenced pH-electrode fixed 12 cm above the stomach.
After 120 min of stabilisation the drugs were added directly to the serosal solution in the organ bath and after a further 60 min cumulative pentagastrin dose-response curves were started.

Row | SMILES | Kb [nM]
1 | CC(C)CCN1C(=O)N(CC(=O)Nc2cccc(C(=O)O)c2)N=C(C2CCCCC2)c2ccccc21 [Example 16, 3-{2-[5-Cyclohexyl-1-(3-methyl-butyl)-2-oxo-1,2-dihydro-3H-1,3,4-benzotriazepin-3-yl]-acetylamino}-benzoic acid] | 42.7
2 | CNc1cccc(NC(=O)CN2N=C(C3CCCC3)c3ccccc3N(CC(=O)C(C)(C)C)C2=O)c1 [Example 11, 2-[5-Cyclopentyl-1-(3,3-dimethyl-2-oxo-butyl)-2-oxo-1,2-dihydro-3H-1,3,4-benzotriazepin-3-yl]-N-(3-methylaminophenyl)-acetamide] | 44.7
3 | CC(C)(C)C(=O)CN1C(=O)N(CC(=O)Nc2cccc(C(=O)O)c2)N=C(C2CCCCC2)c2ccccc21 [Example 2, 3-{2-[5-Cyclohexyl-1-(3,3-dimethyl-2-oxo-butyl)-2-oxo-1,2-dihydro-3H-1,3,4-benzotriazepin-3-yl]-acetylamino}-benzoic acid] | 0.661
4 | CC(C)(C)C(=O)CN1C(=O)N(CC(=O)Nc2ccc3ccn(CC(=O)O)c3c2)N=C(C2CCCCC2)c2ccccc21 [Example 70, (6-{2-[5-Cyclohexyl-1-(3,3-dimethyl-2-oxo-butyl)-2-oxo-1,2-dihydro-3H-1,3,4-benzotriazepin-3-yl]-acetylamino}-indol-1-yl)-acetic acid] | 0.851
5 | CC(C)(C)C(=O)CN1C(=O)N(CC(=O)Nc2ccc3c(ccn3CC(=O)O)c2)N=C(C2CCCCC2)c2ccccc21 [Example 117, (5-{2-[5-Cyclohexyl-1-(3,3-dimethyl-2-oxo-butyl)-2-oxo-1,2-dihydro-3H-1,3,4-benzotriazepin-3-yl]-acetylamino}-indol-1-yl)-acetic acid] | 27.5
6 | O=C(O)Cc1cccc(NC(=O)CN2N=C(C3CCCCC3)c3ccccc3N(CC(=O)C3CCCCC3)C2=O)c1 [Example 80, (3-{2-[5-Cyclohexyl-1-(2-cyclohexyl-2-oxo-ethyl)-2-oxo-1,2-dihydro-3H-1,3,4-benzotriazepin-3-yl]-acetylamino}-phenyl)-acetic acid] | 3.39
7 | CC(Nc1cccc(NC(=O)CN2N=C(C3CCCCC3)c3ccccc3N(CC(=O)C(C)(C)C)C2=O)c1)C(=O)O (racemic) [Example 75, 2-(3{2-[5-Cyclohexyl-1-(3,3-dimethyl-2-oxo-butyl)-2-oxo-1,2-dihydro-3H-1,3,4-benzotriazepin-3-yl]-acetylamino}-phenylamino)-propionic acid] | 209
8 | CNc1cc(NC)cc(NC(=O)CN2N=C(C3CCCCC3)c3ccccc3N(CC(=O)C(C)(C)C)C2=O)c1 [Example 104, N-(3,5-Bis-methylamino-phenyl)-2-[5-cyclohexyl-1-(3,3-dimethyl-2-oxo-butyl)-2-oxo-1,2-dihydro-3H-1,3,4-benzotriazepin-3-yl]-acetamide] | 44.7
9 | CC(C)(C)C(=O)CN1C(=O)N(CC(=O)Nc2cccc(C(=O)O)c2)N=C(C23CC4CC(CC(C4)C2)C3)c2ccccc21 [Example 54, 3-{2-[5-Adamantan-1-yl-1-(3,3-dimethyl-2-oxo-butyl)2-oxo-1,2-dihydro-3H-1,3,4-benzotriazepin-3-yl]-acetylamino}-benzoic acid] | 17
10 | CC(C)(C)C(=O)CN1C(=O)N(CC(=O)Nc2cccc(NS(C)(=O)=O)c2)N=C(C2CCCCC2)c2ccccc21 [Example 26, 2-[5-Cyclohexyl-1-(3,3-dimethyl-2-oxo-butyl)-2-oxo-1,2-dihydro-3H-1,3,4-benzotriazepin-3-yl]-N-(3-methanesulfonylamino-phenyl)-acetamide] | 457
11 | CNc1cc(NC(=O)CN2N=C(C3CCCCC3)c3ccccc3N(CC(=O)C(C)(C)C)C2=O)cc(C(=O)OC)c1 [Example 74, 3-{2-[5-Cyclohexyl-1-(3,3-dimethyl-2-oxo-butyl)-2-oxo-1,2-dihydro-3H-1,3,4-benzotriazepin-3-yl]-acetylamino}-5-methylamino-benzoic acid methyl ester] | 372
12 | CC(C)(C)C(=O)CN1C(=O)N(CC(=O)Nc2cccc3c2ccn3CC(=O)O)N=C(C2CCCCC2)c2ccccc21 [Example 127, (4-{2-[5-Cyclohexyl-1-(3,3-dimethyl-2-oxo-butyl)-2-oxo-1,2-dihydro-3H-1,3,4-benzotriazepin-3-yl]-acetylamino}-indol-1-yl)-acetic acid] | 2.09
13 | CC(C)(C)C(=O)CN1C(=O)N(CC(=O)Nc2cccc(-c3ccc(C(=O)O)s3)c2)N=C(C2CCCCC2)c2ccccc21 [Example 157, 5-(3-{2-[5-Cyclohexyl-1-(3,3-dimethyl-2-oxo-butyl)-2-oxo-1,2-dihydro-3H-1,3,4-benzotriazepin-3-yl]-acetylamino}-phenyl)-thiophene-2-carboxylic acid] | 7.76
14 | CNc1cc(NC(=O)CN2N=C(C3CCCCC3)c3ccccc3N(CC(O)C(C)(C)C)C2=O)cc(C(=O)OC)c1 (stereo not shown) [Example 78, 3-{2-[5-Cyclohexyl-1 (−2-hydroxy-3,3-dimethyl-butyl)-2-oxo-1,2-dihydro-3H-1,3,4-benzotriazepin-3-yl]-acetylamino}-5-methylamino-benzoic acid methyl ester] | 324
15 | CC1CCC(C2=NN(CC(=O)Nc3cccc(C(=O)O)c3)C(=O)N(CC(=O)C(C)(C)C)c3ccccc32)CC1 (stereo not shown) [Example 102, 3-{2-[1-(3,3-Dimethyl-2-oxo-butyl)-5-(4-methyl-cyclohexyl)-2-oxo-1,2-dihydro-3H-1,3,4-benzotriazepin-3-yl]-acetylamino}-benzoic acid] | 0.776
16 | CC(C)(C)C(=O)CN1C(=O)N(CC(=O)Nc2ccccn2)N=C(C2CCCCC2)c2ccccc21 [Example 63, 2-[5-Cyclohexyl-1-(3,3-dimethyl-2-oxo-butyl)-2-oxo-1,2-dihydro-3H-1,3,4-benzotriazepin-3-yl]-N-pyridin-2-yl-acetamide] | 661
17 | CC(C)(C)C(=O)CN1C(=O)N(CC(=O)Nc2cccc(C(=O)O)c2)N=C(C2CCCCC2)c2c(F)cccc21 [Example 113, 3-{2-[5-Cyclohexyl-1-(3,3-dimethyl-2-oxo-butyl)-6-fluoro-2-oxo-1,2-dihydro-3H-1,3,4-benzotriazepin-3-yl]-acetylamino}-benzoic acid] | 6.03
18 | CC(C)(C)C(=O)CN1C(=O)N(CC(=O)Nc2cccc3c2cnn3CC(=O)O)N=C(C2CCCCC2)c2ccccc21 [Example 130, (4-{2-[5-Cyclohexyl-1-(3,3-dimethyl-2-oxo-butyl)-2-oxo-1,2-dihydro-3H-1,3,4-benzotriazepin-3-yl]-acetylamino}-indazol-1-yl)-acetic acid] | 44.7
19 | CC(C)(C)C(=O)CN1C(=O)N(CC(=O)Nc2cccc(SCc3nn[nH]n3)c2)N=C(C2CCCCC2)c2ccccc21 [Example 86, 2-[5-Cyclohexyl-1-(3,3-dimethyl-2-oxo-butyl)-2-oxo-1,2-dihydro-3H-1,3,4-benzotriazepin-3-yl]-N-[3-(4H-tetrazol-5-ylmethylsutfanyl)-phenyl]-acetamide] | 3.39
20 | CC(C)(C)C(=O)CN1C(=O)N(CC(=O)Nc2cccc(CSC(=N)N)c2)N=C(C2CCCCC2)c2ccccc21 [Example 49, N-(3-Carbamimidoylsulfanylmethyl-phenyl)-2-[5-cyclohexyl-1-(3,3-dimethyl-2-oxo-butyl)-2-oxo-1,2-dihydro-3H-1,3,4-benzotriazepin-3-yl]-acetamide] | 100
21 | C=C(CN1C(=O)N(CC(=O)Nc2cccc(CC(=O)O)c2)N=C(C2CCCCC2)c2ccccc21)C(C)(C)C [Example 152, (3-{2-[1-(2-tert-Butyl-allyl)-5-cyclohexyl-2-oxo-1,2-dihydro-3H-1,3,4-benzotriazepin-3-yl]-acetylamino}-phenyl)-acetic acid] | 50.1
22 | CNc1cc(NC(=O)CN2N=C(C3CCCCC3)c3ccccc3N(CC(=O)C(C)(C)C)C2=O)cc(C(=O)O)c1 [Example 73, 3-{2-[5-Cyclohexyl-1-(3,3-dimethyl-2-oxo-butyl)-2-oxo-1,2-dihydro-3H-1,3,4-benzotriazepin-3-yl]-acetylamino}-5-methylamino-benzoic acid] | 67.6
23 | CC(C)(C)C(=O)CN1C(=O)N(CC(=O)Nc2cccc(NCC(=O)O)c2)N=C(C2CCCCC2)c2ccccc21 [Example 52] | 32.4
24 | Cc1cccc2c1C(C1CCCCC1)=NN(CC(=O)Nc1cccc(C(=O)O)c1)C(=O)N2CC(=O)C(C)(C)C [Example 114, 3-{2-[5-Cyclohexyl-1-(3,3-dimethyl-2-oxo-butyl)-6-methyl-2-oxo-1,2-dihydro-3H-1,3,4-benzotriazepin-3-yl]-acetylamino}-benzoic acid] | 35.5
25 | CC(C)(C)C(=O)CN1C(=O)N(CC(=O)Nc2ccc3ccn(Cc4nnn[nH]4)c3c2)N=C(C2CCCCC2)c2ccccc21 [Example 131, 2-[5-Cyclohexyl-1-(3,3-dimethyl-2-oxo-butyl)-2-oxo-1,2-dihydro-3H-1,3,4-benzotriazepin-3-yl]-N-[1-(1H-tetrazol-5-ylmethyl)-1H-indol-6-yl]-acetamide] | 1.62
